Measurements reported in patent US8846704B2, “Thiopyrimidine-based compounds and uses thereof” (YM Biosciences Austraila Pty Ltd, priority 2007, dated 2014).

What was measured:
human JAK2 = molecular target: T1, human JAK2 (Homo sapiens, UniProt O60674); experiment: Alphascreen tyrosine kinase enzyme assay, JAK2 kinase domain; type: biochemical; conditions: read-out: JAK2 IC50_nM
T1 construct: The kinase domain of human JAK2 was amplified; GST (N); made in house; host or cells: Sf9 insect cells (baculovirus)
T1 sequence (O60674 849-1124 limits assumed): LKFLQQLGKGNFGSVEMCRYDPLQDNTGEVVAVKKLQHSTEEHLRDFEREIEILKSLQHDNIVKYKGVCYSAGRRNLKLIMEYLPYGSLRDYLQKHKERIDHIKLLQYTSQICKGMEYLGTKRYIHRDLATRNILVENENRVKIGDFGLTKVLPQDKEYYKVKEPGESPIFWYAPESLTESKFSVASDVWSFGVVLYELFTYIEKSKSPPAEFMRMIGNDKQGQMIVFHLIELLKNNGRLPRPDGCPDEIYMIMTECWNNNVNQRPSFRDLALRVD
In short: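 JAK2 kinase domain expressed in baculovirus/Sf9 and glutathione-affinity purified. Compounds (final […]) pre-incubated 20 min with enzyme in 10 mM HEPES pH 7.5, MgCl2, NaCl, vanadate, 0.1% Tween 20.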

[1] = molecular target: T2, BaF3 TELJAK2 cells (BafT_J2) (Homo sapiens, UniProt O60674); experiment: Cellular screening, BaF3 TEL:JAK2 cells, Alamar Blue; type: cell-based; conditions: 40 hr, read-out: BafT_J2 IC50_nM
T2 construct: fused on or other part: TEL (ETV6) N-terminal part, coding nucleotides 1-487, serves as the oligomerising partner; It is fused through a Sal I site to the JAK2 kinase domain and expressed from pTRE2 in BaF3 cells bearing pTET-off; P41212 (Transcription factor ETV6)
T2 sequence (O60674 whole entry, change not shown, the tested form may be a part): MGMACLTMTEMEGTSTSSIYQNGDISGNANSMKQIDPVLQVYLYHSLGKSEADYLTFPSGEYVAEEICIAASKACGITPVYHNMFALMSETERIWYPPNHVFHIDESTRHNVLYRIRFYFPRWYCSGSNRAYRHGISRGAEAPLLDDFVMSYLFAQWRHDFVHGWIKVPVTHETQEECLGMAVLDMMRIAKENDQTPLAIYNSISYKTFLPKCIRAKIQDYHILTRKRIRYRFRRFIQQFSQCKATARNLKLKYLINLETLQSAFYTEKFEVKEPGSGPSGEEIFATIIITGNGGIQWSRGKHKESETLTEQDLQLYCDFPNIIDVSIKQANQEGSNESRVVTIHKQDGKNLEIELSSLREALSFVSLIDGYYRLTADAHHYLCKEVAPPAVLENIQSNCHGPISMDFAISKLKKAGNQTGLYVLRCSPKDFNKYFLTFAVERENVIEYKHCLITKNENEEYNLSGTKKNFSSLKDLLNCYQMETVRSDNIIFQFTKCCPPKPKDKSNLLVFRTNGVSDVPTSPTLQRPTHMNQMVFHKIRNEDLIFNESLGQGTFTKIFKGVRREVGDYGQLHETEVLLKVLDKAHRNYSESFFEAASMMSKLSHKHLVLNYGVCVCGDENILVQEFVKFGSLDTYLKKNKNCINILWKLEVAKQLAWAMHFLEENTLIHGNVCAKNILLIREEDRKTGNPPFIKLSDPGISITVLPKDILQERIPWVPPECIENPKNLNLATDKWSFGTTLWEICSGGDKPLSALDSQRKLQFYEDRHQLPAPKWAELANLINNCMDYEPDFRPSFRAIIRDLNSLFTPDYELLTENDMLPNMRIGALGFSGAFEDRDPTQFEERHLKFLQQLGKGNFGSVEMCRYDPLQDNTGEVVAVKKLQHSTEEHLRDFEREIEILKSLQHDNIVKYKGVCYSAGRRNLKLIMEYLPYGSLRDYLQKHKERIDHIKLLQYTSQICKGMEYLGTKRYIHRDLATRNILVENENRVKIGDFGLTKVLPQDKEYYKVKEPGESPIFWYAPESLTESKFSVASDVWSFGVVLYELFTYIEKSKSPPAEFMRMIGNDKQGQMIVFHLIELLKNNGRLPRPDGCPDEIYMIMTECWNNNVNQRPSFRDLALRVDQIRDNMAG
In short: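 Tet-off BaF3 cells carrying a TEL (nt 1-487)–JAK2 kinase-domain fusion, grown factor-independently in DMEM with 10% Tet-approved FBS without WEHI 3B medium. Compounds were diluted to 20 μM in screening plates, and cells (50,000–200,000 cell/mL at 1.1×) were incubated 40 hr at 37 °C, 5% CO2. Alamar Blue was then added for 4-6 hours; read at 544 nm.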

human JAK1 = molecular target: T3, human JAK1 (Homo sapiens, UniProt P23458); experiment: Alphascreen tyrosine kinase enzyme assay, JAK1 kinase domain; type: biochemical; conditions: read-out: JAK1 IC50_nM
T3 construct: The kinase domain of human JAK1 was amplified; GST (N); made in house; host or cells: Sf9 insect cells (baculovirus)
T3 sequence (P23458 875-1153 limits assumed): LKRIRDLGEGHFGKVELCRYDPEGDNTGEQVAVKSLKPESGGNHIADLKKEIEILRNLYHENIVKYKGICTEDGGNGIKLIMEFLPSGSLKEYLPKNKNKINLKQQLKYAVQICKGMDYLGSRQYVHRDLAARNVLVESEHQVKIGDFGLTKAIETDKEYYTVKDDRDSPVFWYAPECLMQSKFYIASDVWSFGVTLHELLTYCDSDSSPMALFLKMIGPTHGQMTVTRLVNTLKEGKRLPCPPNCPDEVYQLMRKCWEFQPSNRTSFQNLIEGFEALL
Procedure: For screening purposes, compounds (in 100% DMSO) were warmed at 37 degrees for at least 20 minutes before use. A […] stock was initially made in assay buffer, where the final concentration of DMSO was 0.3%. The stocks were then diluted in 384 well Optiplates (Packard) where the final concentration of the compound was […].
The kinase domain of human JAK1 was amplified from U937mRNA using the polymerase chain reaction with the following primers: […]
The JAK1 PCR products were cloned into the pDest20 destination vector (Gibco). The JAK1 plasmid was then transformed into competent DH10Bac cells (Gibco), and the recombinant baculovirus was prepared via Sf9 insect cell transfection.
Baculovirus preparations from each of the constructs were infected into either one or five liters of Sf9 cells (Invitrogen) grown in SF-900 medium (Invitrogen) to a cell density of approximately 1-2×10^6 cells/ml. Cells were infected with virus at a MOI of 0.8-3.0. Cells were harvested and lysed. Tyrosine kinase domains were purified by affinity chromatography on a glutathione-agarose column (Scientifix Pty. Ltd. catalog #: GSH-200).
Kinase assays were performed in 384 well Optiplates (Packard) using an Alphascreen Protein Tyrosine Kinase PY100 detection kit The compounds were pre-incubated with affinity purified PTK domain in the presence of phosphotyrosine assay buffer (10 mM HEPES, pH 7.5, 100 mM MgCl2, 25 mM NaCl, […] and 0.1% Tween 20) for 20 minutes. The compounds were then incubated with substrate in the presence of ATP. The substrate used was susbtrate-1 with the sequence biotin-EGPWLEEEEEAYGWMDF-NH2 [SEQ. ID. NO. 13] (final concentration […]). For HCK 80 μm ATP was used and incubated for 60 minutes. Alphascreen phosphotyrosine acceptor beads followed by streptavidin donor beads at a concentration of 1/100 in stop buffer were added to each well under subdued light and incubated for 2-3 hours., The Alphascreen plates were read on a Packard Fusion Alpha instrument.

CTLL2 = experiment: Cellular screening, CTLL2 cells, Alamar Blue; type: cell-based; conditions: Mus musculus, CTLL-2, read-out: CTLL2 IC50_nM
In short: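 Viability is read with Alamar Blue at 544 nm, the dye added for the final 4-6 hours. Compounds were incubated for 40 hr with CTLL2 cells taken from late-log-phase culture, at 37° C in 5% CO2.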

C=CC(=O)Nc1ccc(Sc2nc(Nc3cccc(N4CCN(C)CC4)c3)ncc2C)cc1 [Compound 243, N-(4-(5-methyl-2-(3-(4-methylpiperazin-1-yl)phenylao)pyrimidin-4-ylthio)phenyl)acrylamide]
IC50 (human JAK2): > 1 µM
GI50 [1]: < 5 µM
IC50 (human JAK1): > 1 µM
IC50 (CTLL2): < 1 µM

C=CC(=O)Nc1ccc(Sc2nc(Nc3ccc(OCCCN(CC)CC)cc3)ncc2C)cc1 [Compound 291, N-(4-(2-(4-(3-(diethylao)propoxy)phenylao)-5-methylpyrimidin-4-ylthio)phenyl)acrylamide]
IC50 (human JAK2): > 1 µM
GI50 [1]: < 5 µM
IC50 (human JAK1): > 1 µM
IC50 (CTLL2): < 1 µM

Cc1cnc(Nc2cccc(O)c2)nc1Sc1ccc(NC(=O)CCl)cc1 [Compound 194, 2-chloro-N-(4-(2-(3-hydroxyphenylao)-5-methylpyrimidin-4-ylthio)phenyl)acetamide]
IC50 (human JAK2): > 1 µM
GI50 [1]: < 5 µM
IC50 (human JAK1): > 1 µM
IC50 (CTLL2): < 1 µM

C=CC(=O)Nc1ccc(Sc2nc(Nc3cccc(CO)c3)ncc2C)cc1 [Compound 280, N-(4-(2-(3-(hydroxymethyl)phenylao)-5-methylpyrimidin-4-ylthio)phenyl)acrylamide]
IC50 (human JAK2): > 1 µM
GI50 [1]: < 20 µM
IC50 (human JAK1): > 1 µM
IC50 (CTLL2): < 1 µM

N#Cc1nnn(Cc2ccc(Sc3ccnc(Nc4ccc(N5CCOCC5)cc4)n3)cc2)n1 [Compound 156, 2-(4-(2-(4-morpholinophenylao)pyrimidin-4-ylthio)benzyl)-2H-tetrazole-5-carbonitrile]
IC50 (human JAK2): > 1 µM
GI50 [1]: < 5 µM
IC50 (human JAK1): > 1 µM
IC50 (CTLL2): < 5 µM

C=CC(=O)Nc1ccc(Sc2nc(Nc3cccc(NS(C)(=O)=O)c3)ncc2C)cc1 [Compound 288, N-(4-(5-methyl-2-(3-(methylsulfonamido)phenylao)pyrimidin-4-ylthio)phenyl)acrylamide]
IC50 (human JAK2): > 1 µM
GI50 [1]: < 20 µM
IC50 (human JAK1): > 1 µM
IC50 (CTLL2): < 1 µM

C=CC(=O)NCc1cccc(Sc2ccnc(Nc3ccc(N4CCOCC4)cc3)n2)c1 [Compound 112, N-(3-(2-(4-morpholinophenylamino)pyrimidin-4-ylthio)benzyl)acrylamide]
IC50 (human JAK2): > 1 µM
GI50 [1]: < 20 µM
IC50 (human JAK1): > 1 µM
IC50 (CTLL2): < 20 µM

C=CC(=O)Nc1ccc(Sc2nc(Nc3ccc(N4CCC(O)C4)cc3)ncc2C)cc1 (centres unmarked) [Compound 295, N-(4-(2-(4-(3-hydroxypyrrolidin-1-yl)phenylao)-5-methylpyrimidin-4-ylthio)phenyl)acrylamide]
IC50 (human JAK2): > 1 µM
GI50 [1]: > 20 µM
IC50 (human JAK1): > 1 µM
IC50 (CTLL2): < 1 µM

Cc1cnc(Nc2ccc(N3CCOCC3)cc2)nc1Sc1ccc(N2C(=O)C=C(Br)C2=O)cc1 [Compound 382, 3-bromo-1-(4-(5-methyl-2-(4-morpholinophenylao)pyrimidin-4-ylthio)phenyl)-1H-pyrrole-2,5-dione]
IC50 (human JAK2): > 1 µM
GI50 [1]: < 20 µM
IC50 (human JAK1): > 1 µM
IC50 (CTLL2): < 20 µM

C=CC(=O)Nc1ccc(Sc2nc(Nc3ccc(N4CCOCC4)c(OC)c3)ncc2C)cc1 [Compound 248, N-(4-(2-(3-methoxy-4-morpholinophenylao)-5-methylpyrimidin-4-ylthio)phenyl)acrylamide]
IC50 (human JAK2): > 1 µM
GI50 [1]: < 20 µM
IC50 (human JAK1): > 1 µM
IC50 (CTLL2): < 1 µM

C=CC(=O)Nc1ccc(Sc2nc(Nc3ccc(N4CCN(C)CC4)cc3)ncc2C)cc1 [Compound 239, N-(4-(5-methyl-2-(4-(4-methylpiperazin-1-yl)phenylao)pyrimidin-4-ylthio)phenyl)acrylamide]
IC50 (human JAK2): < 1 µM
GI50 [1]: < 5 µM
IC50 (human JAK1): < 0.5 µM
IC50 (CTLL2): < 1 µM

C=CC(=O)Nc1ccc(Sc2ccnc(Nc3ccc(N4CCOCC4)cc3)n2)cc1OC [Compound 123, N-(2-methoxy-4-(2-(4-morpholinophenylao)pyrimidin-4-ylthio)phenyl)acrylamide]
IC50 (human JAK2): > 1 µM
GI50 [1]: < 5 µM
IC50 (human JAK1): > 1 µM
IC50 (CTLL2): < 20 µM

C=CC(=O)Nc1cccc(Sc2ccnc(Nc3ccc(N4CCOCC4)cc3)n2)c1 [Compound 23, N-(3-(2-(4-morpholinophenylamino)pyrimidin-4-ylthio)phenyl)acrylamide]
IC50 (human JAK2): > 1 µM
GI50 [1]: < 20 µM
IC50 (human JAK1): > 1 µM
IC50 (CTLL2): < 1 µM

Cc1cnc(Nc2ccc(N3CCOCC3)cc2)nc1Sc1ccc(NC(=O)/C=C\C(=O)O)cc1 [Compound 380, (Z)-4-(4-(5-methyl-2-(4-morpholinophenylao)pyrimidin-4-ylthio)phenylao)-4-oxobut-2-enoic acid]
IC50 (human JAK2): > 1 µM
GI50 [1]: > 20 µM
IC50 (human JAK1): > 1 µM
IC50 (CTLL2): > 20 µM

C=CC(=O)Nc1ccc(Sc2nc(Nc3cccc(N4CCOCC4)c3)ncc2F)cc1 [Compound 267, N-(4-(5-fluoro-2-(3-morpholinophenylao)pyrimidin-4-ylthio)phenyl)acrylamide]
IC50 (human JAK2): > 1 µM
GI50 [1]: < 5 µM
IC50 (human JAK1): > 1 µM
IC50 (CTLL2): < 1 µM

C=CC(=O)Nc1ccc(Sc2nc(Nc3ccc(OCCN4CCOCC4)cc3)ncc2C)cc1 [Compound 290, N-(4-(5-methyl-2-(4-(2-morpholinoethoxy)phenylao)pyrimidin-4-ylthio)phenyl)acrylamide]
IC50 (human JAK2): > 1 µM
GI50 [1]: < 20 µM
IC50 (human JAK1): > 1 µM
IC50 (CTLL2): < 1 µM

C=CC(=O)Nc1cccc(Nc2nccc(Sc3ccc(OC)cc3)n2)c1 [Compound 42, N-(3-(4-(4-methoxyphenylthio)pyrimidin-2-ylao)phenyl)acrylamide]
IC50 (human JAK2): > 1 µM
GI50 [1]: < 20 µM
IC50 (human JAK1): > 1 µM
IC50 (CTLL2): < 5 µM

N#CCC(=O)Nc1cccc(Sc2ccnc(Nc3ccc(N4CCOCC4)cc3)n2)c1 [Compound 24, N-(3-(2-(4-morpholinophenylamino)pyrimidin-4-ylthio)phenyl)-2-cyanoacetamide]
IC50 (human JAK2): < 0.5 µM
GI50 [1]: < 20 µM
IC50 (human JAK1): > 1 µM
IC50 (CTLL2): < 20 µM

C=CC(=O)Nc1ccc(Sc2ccnc(Nc3ccc(S(N)(=O)=O)c(OC)c3)n2)cc1 [Compound 374, N-(4-(2-(3-methoxy-4-sulfamoylphenylao)pyrimidin-4-ylthio)phenyl)acrylamide]
IC50 (human JAK2): > 1 µM
GI50 [1]: < 5 µM
IC50 (human JAK1): > 1 µM
IC50 (CTLL2): < 20 µM

CCOC(=O)/C=C/C(=O)Nc1ccc(Sc2nc(Nc3ccc(N4CCOCC4)cc3)ncc2C)cc1 [Compound 385, (E)-ethyl 4-(4-(5-methyl-2-(4-morpholinophenylao)pyrimidin-4-ylthio)phenylao)-4-oxobut-2-enoate]
IC50 (human JAK2): > 1 µM
GI50 [1]: > 20 µM
IC50 (human JAK1): > 1 µM
IC50 (CTLL2): < 5 µM

Cc1cnc(Nc2ccc(N3CCOCC3)cc2)nc1Sc1c(C)cc(N)cc1C [Compound 165, 4-(4-ao-2,6-dimethylphenylthio)-5-methyl-N-(4-morpholinophenyl)pyrimidin-2-ae]
IC50 (human JAK2): > 1 µM
GI50 [1]: > 20 µM
IC50 (human JAK1): > 1 µM
IC50 (CTLL2): > 20 µM

NCc1cccc(Sc2ccnc(Nc3ccc(N4CCOCC4)cc3)n2)c1 [Compound 75, 4-(3-(aomethyl)phenylthio)-N-(4-morpholinophenyl)pyrimidin-2-ae]
IC50 (human JAK2): < 1 µM
GI50 [1]: < 20 µM
IC50 (human JAK1): < 0.5 µM
IC50 (CTLL2): < 20 µM

CNC(=O)/C=C\C(=O)Nc1ccc(Sc2nc(Nc3ccc(N4CCOCC4)cc3)ncc2C)cc1 [Compound 389, N1-methyl-N4-(4-(5-methyl-2-(4-morpholinophenylao)pyrimidin-4-ylthio)phenyl)maleamide]
IC50 (human JAK2): > 1 µM
GI50 [1]: < 20 µM
IC50 (human JAK1): > 1 µM
IC50 (CTLL2): < 1 µM
